Patent US8263606B2 (Xenon Pharmaceuticals Inc., priority 2008, dated 2012)

Legend:
sodium channel = experiment: Guanidine influx assay (14C-guanidine radiotracer flux, in vitro); format: cell-based, human or rat; conditions: guanidine influx assay using a known cell line that expresses a sodium channel; activity level class
Method in brief: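 Cells stably expressing human or rat sodium channels (~100,000/well, 20–24 h) were exposed in low-sodium choline buffer to test agent plus aconitine activator and 14C-guanidine at ambient temperature. Intracellular 14C-guanidine was counted by scintillation; IC50 fitted by 4-parameter logistic over half-dilutions around 1 μM.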

CYP3A4 = CYP3A4 (Homo sapiens, UniProt P08684); experiment: Cytochrome P450 (CYP450) Inhibition Assay, CYP3A4 (Vivid fluorescence, BOMCC substrate); conditions: human, P450 Baculosomes (recombinant CYP3A4), probe BOMCC (Vivid substrate)
[1] = system: inactivated state of the channel of interest (sodium channel); experiment: Electrophysiological assay (whole cell voltage clamp, in vitro); format: cell-based; conditions: affinity for the inactivated state of the channel of interest
Protocol: Cells expressing the channel of interest are cultured in DMEM growth media (Gibco) with 0.5 mg/mL G418, +/−1% PSG, and 10% heat-inactivated fetal bovine serum at 37° C. and 5% CO2. For electrophysiological recordings, cells are plated on 10 mm dishes.
Whole cell recordings are examined by established methods of whole cell voltage clamp (Bean et al., op. cit.) using an Axopatch 200B amplifier and Clampex software (Axon Instruments, Union City, Calif.). All experiments are performed at ambient temperature. Electrodes are fire-polished to resistances of 2-4 Mohms Voltage errors and capacitance artifacts are minimized by series resistance compensation and capacitance compensation, respectively. Data are acquired at 40 kHz and filtered at 5 kHz. The external (bath) solution consists of: NaCl (140 mM), KCl (5 mM), CaCl2 (2 mM), MgCl2 (1 mM), HEPES (10 mM) at pH 7.4. The internal (pipette) solution consists of (in mM): NaCl (5), CaCl2 (0.1), MgCl2 (2), CsCl (10), CsF (120), HEPES (10), EGTA (10), at pH 7.2.
To estimate the steady-state affinity of compounds for the resting and inactivated state of the channel (Kr and Ki, respectively), 12.5 ms test pulses to depolarizing voltages from −60 to +90 mV from a holding potential of −120 m V is used to construct current-voltage relationships (I-V curves). A voltage near the peak of the IV-curve (−30 to 0 m V) is used as the test pulse throughout the remainder of the experiment. Steady-state inactivation (availability) curves are then constructed by measuring the current activated during a 8.75 ms test pulse following 1 second conditioning pulses to potentials ranging from −120 to −10 m V.
The steady-state voltage-dependence of binding of a compound to a sodium channel is determined by measuring the blockage of the ionic current at two holding potentials. Binding to rested-state channels is determined by using a holding potential of −120 mV, so that maximal availability is achieved. Binding to inactivated-state channels is evaluated at a holding potential such that only 10% of the channels are available to open. The membrane potential is held at this voltage for at least 10 seconds so that drug binding can equilibrate.
The apparent dissociation constant at each voltage is calculated with the equation:
[formula] where Kd is the dissociation constant (either Kr or Ki), and [Drug] is the concentration of the test compound.
The Example numbers provided in Table 3 correspond to the Examples herein: […]

Chain of CYP3A4 (P08684 whole entry): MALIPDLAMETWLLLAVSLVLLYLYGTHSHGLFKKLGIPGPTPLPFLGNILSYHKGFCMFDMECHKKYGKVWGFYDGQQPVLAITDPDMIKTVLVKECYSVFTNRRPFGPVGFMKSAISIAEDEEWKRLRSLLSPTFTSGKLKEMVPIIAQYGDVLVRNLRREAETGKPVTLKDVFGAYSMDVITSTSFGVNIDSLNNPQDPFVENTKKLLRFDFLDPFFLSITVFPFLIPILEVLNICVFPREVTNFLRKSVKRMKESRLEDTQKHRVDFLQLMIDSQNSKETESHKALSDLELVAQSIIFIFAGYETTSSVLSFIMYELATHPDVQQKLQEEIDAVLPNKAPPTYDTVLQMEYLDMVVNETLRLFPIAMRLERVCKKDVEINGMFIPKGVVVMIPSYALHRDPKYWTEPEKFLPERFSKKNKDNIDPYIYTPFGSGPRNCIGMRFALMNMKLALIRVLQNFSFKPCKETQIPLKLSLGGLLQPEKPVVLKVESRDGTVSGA

SMILES	melting point [°C]	IC50 (sodium channel) [nM]	inhibition at 10 µM (CYP3A4) [%]	Ki [1] [nM]
O=C1Nc2cccc(-c3cnc4ccccc4c3)c2C12COc1cc3c(cc12)OCCO3 (stereo not drawn) [Example 3.34, 4′-quinolin-3-yl-2,3-dihydrospiro[furo[2,3-g][1,4]benzodioxine-8,3′-indol]-2′(1′H)-one]	221 to 224	100 to 1000	> 50	> 300
O=C1N(Cc2ccc3nonc3c2)c2ccccc2C12COc1cc3c(cc12)CCO3 (stereo not drawn) [Example 4.27, 1′-(2,1,3-benzoxadiazol-5-ylmethyl)-5,6-dihydrospiro[benzo[1,2-b:5,4-b′]difuran-3,3′-indol]-2′(1′H)-one]	169 to 171	1 to 100	> 50	> 300
O=C1N(Cc2ccc3nsnc3c2)c2ccccc2C12COc1cc3c(cc12)CCO3 (stereo not drawn) [Example 4.28, 1′-(2,1,3-benzothiadiazol-5-ylmethyl)-5,6-dihydrospiro[benzo[1,2-b:5,4-b′]difuran-3,3′-indol]-2′(1′H)-one]	162 to 164	1 to 100	> 50	< 300
O=C1N(CC2CN(Cc3ccccc3)CCO2)c2ccccc2C12COc1cc3c(cc12)CCO3 (stereo not drawn) [Example 4.29, 1′-[(4-benzylmorpholin-2-yl)methyl]-5,6-dihydrospiro[benzo[1,2-b:5,4-b′]difuran-3,3′-indol]-2′(1′H)-one]	65 to 70	1000 to 10000	> 50	> 300
O=C1N(CC2COCCO2)c2ccccc2C12COc1cc3c(cc12)OCCO3 (stereo not drawn) [Example 4.45, 1′-(1,4-dioxan-2-ylmethyl)-2,3-dihydrospiro[furo[2,3-g][1,4]benzodioxine-8,3′-indol]-2′(1′H)-one]	160 to 165	1 to 100	< 50	> 300
O=C1N(Cc2ccc3c(c2)OCCO3)c2ccccc2C12COc1cc3c(cc12)OCCO3 (stereo not drawn) [Example 4.48, 1-(2,3-dihydro-1,4-benzodioxin-6-ylmethyl)-2,3-dihydrospiro[furo[2,3-g][1,4]benzodioxine-8,3′-indol]-2′(1′H)-one]	120 to 123	1 to 100	< 50	< 300
O=C1N(Cc2ccc(C(F)(F)F)o2)c2ccccc2[C@@]12COc1cc3c(cc12)OCCO3 [Example 4.49, (R)-1′-{[5-(trifluoromethyl)furan-2-yl]methyl}-2,3-dihydrospiro[furo[2,3-g][1,4]benzodioxine-8,3′-indol]-2′(1′H)-one]	64 to 68	1 to 100	> 50	< 300
O=C1N(Cc2ccc(C(F)(F)F)o2)c2ccccc2C12COc1cc3c(cc12)OCCCO3 (stereo not drawn) [Example 4.54, 1-{[5-(trifluoromethyl)furan-2-yl]methyl}-3,4-dihydro-2H-spiro[furo[2,3-h][1,5]benzodioxepine-9,3′-indol]-2′(1′H)-one]	162 to 164	100 to 1000	> 50	< 300
O=C1N(Cc2ccccn2)c2ccccc2C12COc1cc3c(cc12)OCCCO3 (stereo not drawn) [Example 4.55, 1′-(pyridin-2-ylmethyl)-3,4-dihydro-2H-spiro[furo[2,3-h][1,5]benzodioxepine-9,3′-indol]-2′(1′H)-one]	122 to 123	100 to 1000	< 50	> 300

Now from value to molecule, other results behind:

melting point [°C]	IC50 (sodium channel) [nM]	inhibition at 10 µM (CYP3A4) [%]	SMILES	Ki [1] [nM]
146 to 148	1000 to 10000	< 50	COCCOCCN1C(=O)C2(COc3cc4c(cc32)OCCO4)c2cc3c(cc21)OCCO3 (stereo not drawn) [Example 2.65, 6-[2-(2-methoxyethoxy)ethyl]-2,2′,3,3′-tetrahydrospiro[1,4-dioxino[2,3-f]indole-8,8′-furo[2,3-g][1,4]benzodioxin]-7(6H)-one]	> 300
> 250	1000 to 10000	> 50	COc1cc2c(cc1C)C1(CO2)C(=O)Nc2ccccc21 (stereo not drawn) [Example 3, 6-methoxy-5-methylspiro[1-benzofuran-3,3′-indol]-2′(1′H)-one]	> 300
185 to 186	1000 to 10000	< 50	COc1cc2c(cc1C#N)C1(CO2)C(=O)Nc2ccccc21 (stereo not drawn) [Example 3.29, 6-methoxy-2′-oxo-1′,2′-dihydrospiro[1-benzofuran-3,3′-indole]-5-carbonitrile]	> 300
243 to 246	100 to 1000	> 50	O=C1Nc2cccc(-c3ccc(Oc4ccccc4)cc3)c2C12COc1cc3c(cc12)OCCO3 (stereo not drawn) [Example 3.35, 4′-(4-phenoxyphenyl)-2,3-dihydrospiro[furo[2,3-g][1,4]benzodioxine-8,3′-indol]-2′(1′H)-one]	> 300
> 220	1000 to 10000	< 50	O=C1Nc2ccccc2C12COc1ccc3nonc3c12 (stereo not drawn) [Example 3.41, spiro[furo[3,2-e][2,1,3]benzoxadiazole-8,3′-indol]-2′(1′H)-one]	> 300
187 to 193	1 to 100	> 50	N#Cc1cccc(CN2C(=O)C3(COc4cc5c(cc43)CCO5)c3ccccc32)c1 (stereo not drawn) [Example 4.22, 3-[(2′-oxo-5,6-dihydrospiro[benzo[1,2-b:5,4-b′]difuran-3,3′-indol]-1′(2′H)-yl)methyl]benzonitrile]	> 300
134 to 137	1 to 100	< 50	CC(C)CCN1C(=O)C2(COc3cc4c(cc32)OCCO4)c2ccccc21 (stereo not drawn) [Example 4.36, 1′-(3-methylbutyl)-2,3-dihydrospiro[furo[2,3-g][1,4]benzodioxine-8,3′-indol]-2′(1′H)-one]	< 300
158 to 166	1 to 100	< 50	O=C1N(CC2CCCCO2)c2ccccc2C12COc1cc3c(cc12)OCCO3 (stereo not drawn) [Example 4.38, 1′-(tetrahydro-2H-pyran-2-ylmethyl)-2,3-dihydrospiro[furo[2,3-g][1,4]benzodioxine-8,3′-indol]-2′(1′H)-one]	< 300
173 to 175	1 to 100	< 50	O=C1N(C[C@@H]2CCCO2)c2ccccc2C12COc1cc3c(cc12)OCCO3 (stereo partly drawn) [Example 4.43, 1-[(2S)-tetrahydrofuran-2-ylmethyl]-2,3-dihydrospiro[furo[2,3-g][1,4]benzodioxine-8,3′-indol]-2′(1′H)-one]	> 300
53 to 56	1 to 100	> 50	O=C1N(Cc2ccc(C(F)(F)F)o2)c2ccccc2[C@]12COc1cc3c(cc12)OCCO3 [Example 4.50, (S)-1′-{[5-(trifluoromethyl)furan-2-yl]methyl}-2,3-dihydrospiro[furo[2,3-g][1,4]benzodioxine-8,3′-indol]-2′(1′H)-one]	< 300
144 to 146	1 to 100	< 50	O=C1N(Cc2ccccn2)c2ccccc2[C@]12COc1cc3c(cc12)OCCO3 [Example 4.51, (S)-1′-(pyridin-2-ylmethyl)-2,3-dihydrospiro[furo[2,3-g][1,4]benzodioxine-8,3′-indol]-2′(1′H)-one]	< 300
196 to 199	100 to 1000	< 50	O=C1N(Cc2ccccn2)c2cccc(-c3ccc(Oc4ccccc4)cc3)c2C12COc1cc3c(cc12)OCCO3 (stereo not drawn) [Example 4.103, 4′-(4-phenoxyphenyl)-1′-(pyridin-2-ylmethyl)-2,3-dihydrospiro[furo[2,3-g][1,4]benzodioxine-8,3′-indol]-2′(1′H)-one]	< 300
